Target: T1, GAL4-PPARδ chimera (Homo sapiens, UniProt Q03181)
T1 construct: expressed in transfected cells
Assay: Cellular transactivation assay (luciferase reporter)
Format: cell-based
Conditions: CHO cells stably expressing GAL4-PPARδ chimera and luciferase reporter; 24 hours stimulation
Source text: Cellular Transactivation Assay:
A cellular assay is used to identify activators of the peroxisome proliferator-activated receptor delta (PPAR-delta).
Since mammalian cells contain different endogenous nuclear receptors which may complicate an unambiguous interpretation of the results, an established chimera system is used in which the ligand binding domain of the human PPARδ receptor is fused to the DNA binding domain of the yeast transcription factor GAL4. The resulting GAL4-PPARδ chimera is co-transfected and stably expressed in CHO cells having a reporter construct.
The reporter construct, which contains five copies of the GAL4 binding site upstream of a thymidine kinase promoter, expresses firefly luciferase (Photinus pyralis) following activation and binding of GAL4-PPARδ.
Transactivation Assay (Luciferase Reporter):
CHO (chinese hamster ovary) cells are sown in CHO-A-SFM medium (GIBCO), supplemented by 2.5% foetal calf serum, 1% penicillin/streptomycin (GIBCO), at a cell density of 2×10^3 cells per well in a 384 well plate (Greiner). The cells are cultivated at 37° C. for 48 h and then stimulated. To this end, the substances to be tested are taken up in the abovementioned medium and added to the cells. After a stimulation period of 24 hours, the luciferase activity is measured using a video camera. The relative light units measured give, as a function of the substance concentration, a sigmoidal stimulation curve.

T1 sequence (Q03181 with tags, fused parts or gaps limits assumed): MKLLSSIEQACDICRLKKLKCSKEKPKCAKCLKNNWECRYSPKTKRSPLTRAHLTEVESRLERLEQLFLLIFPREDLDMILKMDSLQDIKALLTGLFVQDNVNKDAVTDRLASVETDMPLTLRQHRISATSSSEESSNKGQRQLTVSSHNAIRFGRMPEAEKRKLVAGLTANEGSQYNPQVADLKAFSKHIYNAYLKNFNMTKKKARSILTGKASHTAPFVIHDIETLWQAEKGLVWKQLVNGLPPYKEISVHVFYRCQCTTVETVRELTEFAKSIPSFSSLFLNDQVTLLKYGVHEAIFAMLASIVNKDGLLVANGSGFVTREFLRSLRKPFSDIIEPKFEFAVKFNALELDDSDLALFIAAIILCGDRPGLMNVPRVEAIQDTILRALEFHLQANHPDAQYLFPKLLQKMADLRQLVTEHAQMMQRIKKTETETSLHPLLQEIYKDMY

EC50 | SMILES
1 to 100 nM | Cc1cc(CN(CC(=O)Nc2ccc(Cl)cc2Cl)C2CCCC2)ccc1OC(C)C(=O)O (stereo not shown) [Example 8]
1 to 100 nM | CC(C)(Oc1ccc(CN(CC(=O)Nc2ccc(Cl)cc2Cl)C2CCCC2)cc1)C(=O)O [Example 9]
1 to 100 nM | Cc1cc(CN(CC(=O)Nc2ccc(Cl)cc2Cl)C2C(C)CCC2C)ccc1OC(C)(C)C(=O)O (stereo not shown) [Example 3, 2-[4-[[[2-[(2,4-Dichlorophenyl)amino]-2-oxoethyl]-(2,5-dimethylcyclopentyl)amino]methyl]-2-methylphenoxy]-2-methylpropanoic Acid]
1 to 100 nM | Cc1cc(CN(CC(=O)Nc2ccc(Cl)cc2Cl)C2CCCCC2)ccc1OC(C)(C)C(=O)O [Example 1, 2-[4-[[[2-[(2,4-Dichlorophenyl)amino]-2-oxoethyl]cyclohexylamino]methyl]-2-methylphenoxy]-2-methylpropanoic Acid]
1 to 100 nM | Cc1cc(CN(CCNc2ccc(Cl)cc2Cl)C2CCCCC2)ccc1OC(C)(C)C(=O)O [Example 4, 2-{4-[(Cyclohexyl{2-[(2,4-dichlorophenyl)amino]ethyl}amino)methyl]-2-methylphenoxy}-2-methylpropanoic Acid]
1 to 100 nM | Cc1ccc(NC(=O)CN(Cc2ccc(OC(C)C(=O)O)c(C)c2)C2CCCCC2)c(C)c1 (stereo not shown) [Example 6, 2-[4-[[[2-[(2,4-Dimethylphenyl)amino]-2-oxoethyl]cyclohexylamino]methyl]-2-methylphenoxy]propanoic Acid]
1 to 100 nM | Cc1cc(CN(CC(=O)Nc2ccc(Cl)cc2Cl)C2CCCCC2)ccc1OCC(=O)O [Example 2, 2-[4-[[[2-[(2,4-Dichlorophenyl)amino]-2-oxoethyl]cyclohexylamino]methyl]-2-methylphenoxy]acetic Acid]
